{"source": "patent US7939341B2", "about": "“Membrane arrays and methods of manufacture” (Corning Incorporated, priority 2004, dated 2011)", "target": "motilin receptor (Motilin) (Homo sapiens, UniProt O43193)", "sequence (O43193 whole entry, species assumed)": "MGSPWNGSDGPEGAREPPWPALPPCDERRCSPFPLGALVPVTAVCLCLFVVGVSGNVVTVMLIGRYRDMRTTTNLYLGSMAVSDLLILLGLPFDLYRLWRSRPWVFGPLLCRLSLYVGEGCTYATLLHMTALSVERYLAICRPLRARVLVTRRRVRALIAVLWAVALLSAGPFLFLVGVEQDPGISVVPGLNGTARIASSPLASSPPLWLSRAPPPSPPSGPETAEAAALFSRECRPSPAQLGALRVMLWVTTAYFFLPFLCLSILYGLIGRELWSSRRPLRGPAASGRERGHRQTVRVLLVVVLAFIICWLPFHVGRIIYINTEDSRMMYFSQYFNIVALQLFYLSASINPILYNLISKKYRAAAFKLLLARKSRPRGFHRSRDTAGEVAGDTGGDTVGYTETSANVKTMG", "assay": "GPCR array functional assay (Eu-GTP binding) on GAPS coated porous slide, Motilin receptor", "assay_type": "biochemical", "details": "agonist at 1 μM, 10 nM Eu-GTP, 3 μM GDP, 1 hour incubation, time-resolved fluorescence", "description": "2) Assays performing—the printed GPCR arrays are then incubated with assay buffers containing GTP analogue probes in the presence or absence of receptor agonist for certain time (e.g., 45 minutes), and at the end of incubation period the assay solutions are removed, the slides are rinsed with GTP wash buffer and dried with nitrogen;\n3) Imaging—when Eu-GTP is used as a probe, the slides are then directly scanned using a time-resolved fluorescence imaging system; and, if biotin-GTPγS is used as a probe, an extra incubation step is often performed before imaging. For example, the array is then further incubated with Gold particles labeled streptavadin in order to detect bounded biotin-GTPγS, resonance light scattering imaging system is then used.\nThe EuGTP assay buffer contained 10 nM Eu-GTP, 50 mM HEPES buffer, pH 7.4, 3 μM GDP, 10 mM MgCl2, 100 mM NaCl, and 0.1% protein blocker. At the end of the incubation, the assay buffers were removed. Afterwards, slides were washed, dried and imaged with in-house developed time-resolved fluorescence imaging system."}
{"compound": "CC[C@H](C)[C@H](NC(=O)[C@@H]1CCCN1C(=O)[C@@H](NC(=O)[C@@H](N)Cc1ccccc1)C(C)C)C(=O)N[C@@H](Cc1ccccc1)C(=O)N[C@H](C(=O)N[C@@H](Cc1ccc(O)cc1)C(=O)NCC(=O)N[C@@H](CCC(=O)O)C(=O)N[C@@H](CC(C)C)C(=O)N[C@@H](CCC(N)=O)C(=O)N[C@@H](CCCNC(=N)N)C(=O)N[C@@H](CCSC)C(=O)N[C@@H](CCC(N)=O)C(=O)N[C@@H](CCC(=O)O)C(=O)N[C@@H](CCCCN)C(=O)N[C@@H](CCC(=O)O)C(=O)N[C@@H](CCCNC(=N)N)C(=O)N[C@@H](CC(N)=O)C(=O)N[C@@H](CCCCN)C(=O)NCC(=O)N[C@@H](CCC(N)=O)C(=O)O)[C@@H](C)O", "note": "[motilin]", "values": [{"measurement": "binding of EuGTP to the GPCR microspots (receptor activation by agonist)", "result": "increase the binding of EuGTP"}]}
